{"source": "patent US20250152494A1", "about": "“COSMETIC COMPOSITION CONTAINING RETINOID, EXTRACT OF CENTELLA ASIATICA AND A DIPEPTIDE” (THE BOOTS COMPANY PLC, priority 2022, published 2025)", "tested_on": "IL-6", "test": "Retinol (Inumax)-induced IL-6 production in primary adult human dermal fibroblast cells", "type": "cell-based", "settings": "lower effective retinoid concentrations (lower than 0.5% by weight of the composition)", "experimental": "Primary adult human dermal fibroblast cells were incubated with 0.1% microencapsulated retinol commercially available and sold y Evonik under the trade name Inumax. Inumax was diluted in cell culture media to a final concentration of 0.1% and the dilution was used as an inflammatory reaction control. The anti-inflammatory activity of Bisabolol and Centella asiatica was compared in comparison to the control by incubating adult human dermal fibroblast cells with 0.1% inumax in supernatant in the presence of Bisabolol and Centella asiatica, both in combination with dipeptide, at a range of concentrations. Cells were incubated fro 24 hours at 37 C and 5% CO2, in the presence of the actives. At the end of incubation time the supernatant was removed for IL-6 testing. An MTT (3-(4,5-dimethylthiazol-2-yl)-2,5-diphenyltetrazolium bromide) assay was performed on the treated cells to confirm cell metabolic activity following treatment. The levels of IL-6 in supernatant were determined using the Invitrogen IL-6 assay."}
{"substance": "α-bisabolol", "values": [{"measurement": "reducing the retinol induced IL-6 production and consequential skin sensitivity", "result": "beneficial in reducing the retinol induced IL-6 production"}]}
